Reference: US9232797B2, “Pesticidal composition and its use” (SUMITOMO CHEMICAL COMPANY, LIMITED, priority 2010, dated 2016)

Test system: Rhizoctonia solani
Test: Soybean seed treatment test in soil contaminated by Rhizoctonia solani (disease control efficacy)
Type: in vivo, Rhizoctonia solani on soybean (variety: Natto shoryu)
Settings: seed treatment with carboxamide compound alone 0.2 g/100 kg of seeds; soybean cultivated 20 days in contaminated soil; versus non-treated plot
Method: A cyclohexanone solution (100 microL) containing prescribed amount (weight) of a test compound was applied on seeds of soybean (variety: Natto shoryu) (10 g) by using a rotary apparatus for seed treatment (Seed dresser, manufactured by Hans-Ulrich Hege GmbH).
One day after the treatment, plastic pot was filled with soil contaminated by Rhizoctonia solani, and the seeds treated with the test compounds were seeded in the soil and cultivated in a glass-greenhouse for 20 days (hereinafter referred to as “treated plot”).
Thereafter, the presence of disease caused by Rhizoctonia solani in the young plants which germinated from each seed was observed and disease severity was calculated according to the following calculation formula (1).
On the other hand, seeds of soybean which were not treated as above were cultivated in the same way as above (hereinafter referred to as “non-treated plot”) and the disease severity in “non-treated plot” was calculated in the same way as above “treated plot”. On the basis of the above disease severity in “treated plot” and “non-treated plot”, efficacy in “treated plot” was evaluated according to the following calculation formula (2). […]

SMILES: CC1CC(C)(C)c2cccc(NC(=O)c3cn(C)nc3C(F)F)c21 (stereo not shown) [carboxamide compound (I)]
- efficacy (%): 42.1%
